This data set deals with CCRIS mutagenicity, Ames/micronucleus/aberration tests. Nature of the data set: CCRIS mutagenicity studies.
Setting [1] is: Test System: AMES SALMONELLA TYPHIMURIUM, Strain/Indicator: TA98, Metabolic Activation: NONE, Method: PREINCUBATION
The mark [2] stands for this setting: Test System: AMES SALMONELLA TYPHIMURIUM, Strain/Indicator: TA100, Metabolic Activation: NONE, Method: PREINCUBATION
Setting [3] is: Test System: AMES SALMONELLA TYPHIMURIUM, Strain/Indicator: TA1535, Metabolic Activation: NONE, Method: PREINCUBATION

Activity calls are given as the source filed them. No rule for the calls is given here.

Take `c1ccc(Nc2ccccc2)cc1`: the mutagenic call is “active; positive (structural changes). toxicity at 0.14 mg/ml” (End Point: In vitro chromosomal aberrations, Test System: Chinese hamster lung (CHL/IU) cells, Metabolic Activation: Rat, Liver, S9, Phenobarbital and 5,6-benzoflavone); “inactive; negative” (Test System: AMES SALMONELLA TYPHIMURIUM, Strain/Indicator: TA97, Metabolic Activation: HAMSTER, LIVER, S-9, AROCLOR 1254 (10%), Method: PREINCUBATION); “inactive; negative” (Test System: AMES SALMONELLA TYPHIMURIUM, Strain/Indicator: TA97, Metabolic Activation: HAMSTER, LIVER, S-9, AROCLOR 1254 (30%), Method: PREINCUBATION); “inactive; negative” (Test System: AMES SALMONELLA TYPHIMURIUM, Strain/Indicator: TA97, Metabolic Activation: NONE, Method: PREINCUBATION); “inactive; negative” (Test System: AMES SALMONELLA TYPHIMURIUM, Strain/Indicator: TA97, Metabolic Activation: RAT, LIVER, S-9, AROCLOR 1254 (10%), Method: PREINCUBATION); “inactive; negative” (Test System: AMES SALMONELLA TYPHIMURIUM, Strain/Indicator: TA97, Metabolic Activation: RAT, LIVER, S-9, AROCLOR 1254 (30%), Method: PREINCUBATION). Moreover, the mutagenic call is “inactive; negative” (Test System: AMES SALMONELLA TYPHIMURIUM, Strain/Indicator: TA98, Metabolic Activation: HAMSTER, LIVER, S-9, AROCLOR 1254 (10%), Method: PREINCUBATION); “inactive; negative” (Test System: AMES SALMONELLA TYPHIMURIUM, Strain/Indicator: TA98, Metabolic Activation: HAMSTER, LIVER, S-9, AROCLOR 1254 (30%), Method: PREINCUBATION); “inactive; negative” under setting [1]; “inactive; negative” (Test System: AMES SALMONELLA TYPHIMURIUM, Strain/Indicator: TA98, Metabolic Activation: RAT, LIVER, S-9, AROCLOR 1254 (10%), Method: PREINCUBATION); “inactive; negative” (Test System: AMES SALMONELLA TYPHIMURIUM, Strain/Indicator: TA98, Metabolic Activation: RAT, LIVER, S-9, AROCLOR 1254 (30%), Method: PREINCUBATION); “inactive; negative” (Test System: AMES SALMONELLA TYPHIMURIUM, Strain/Indicator: TA100, Metabolic Activation: HAMSTER, LIVER, S-9, AROCLOR 1254 (10%), Method: PREINCUBATION). Further, the mutagenic call was “inactive; negative” (Test System: AMES SALMONELLA TYPHIMURIUM, Strain/Indicator: TA100, Metabolic Activation: HAMSTER, LIVER, S-9, AROCLOR 1254 (30%), Method: PREINCUBATION); “inactive; negative” under setting [2]; “inactive; negative” (Test System: AMES SALMONELLA TYPHIMURIUM, Strain/Indicator: TA100, Metabolic Activation: RAT, LIVER, S-9, AROCLOR 1254 (10%), Method: PREINCUBATION); “inactive; negative” (Test System: AMES SALMONELLA TYPHIMURIUM, Strain/Indicator: TA100, Metabolic Activation: RAT, LIVER, S-9, AROCLOR 1254 (30%), Method: PREINCUBATION); “inactive; negative” (Test System: AMES SALMONELLA TYPHIMURIUM, Strain/Indicator: TA1535, Metabolic Activation: HAMSTER, LIVER, S-9, AROCLOR 1254 (10%), Method: PREINCUBATION); “inactive; negative” (Test System: AMES SALMONELLA TYPHIMURIUM, Strain/Indicator: TA1535, Metabolic Activation: HAMSTER, LIVER, S-9, AROCLOR 1254 (30%), Method: PREINCUBATION). Besides, the mutagenic call is, setting by setting: under setting [3], “inactive; negative”; (Test System: AMES SALMONELLA TYPHIMURIUM, Strain/Indicator: TA1535, Metabolic Activation: RAT, LIVER, S-9, AROCLOR 1254 (10%), Method: PREINCUBATION) “inactive; negative”; (Test System: AMES SALMONELLA TYPHIMURIUM, Strain/Indicator: TA1535, Metabolic Activation: RAT, LIVER, S-9, AROCLOR 1254 (30%), Method: PREINCUBATION) “inactive; negative”.

For the molecule `O=C1c2ccccc2CCc2ccccc21`, the mutagenic call by setting is: (Test System: AMES SALMONELLA TYPHIMURIUM, Strain/Indicator: TA98, Metabolic Activation: HAMSTER, LIVER, S-9, AROCLOR 1254, Method: STANDARD PLATE) “inactive; negative”; (Test System: AMES SALMONELLA TYPHIMURIUM, Strain/Indicator: TA98, Metabolic Activation: NONE, Method: STANDARD PLATE) “inactive; negative”; (Test System: AMES SALMONELLA TYPHIMURIUM, Strain/Indicator: TA98, Metabolic Activation: RAT, LIVER, S-9, AROCLOR 1254, Method: STANDARD PLATE) “inactive; negative”; (Test System: AMES SALMONELLA TYPHIMURIUM, Strain/Indicator: TA100, Metabolic Activation: HAMSTER, LIVER, S-9, AROCLOR 1254, Method: STANDARD PLATE) “inactive; negative”; (Test System: AMES SALMONELLA TYPHIMURIUM, Strain/Indicator: TA100, Metabolic Activation: NONE, Method: STANDARD PLATE) “inactive; negative”; (Test System: AMES SALMONELLA TYPHIMURIUM, Strain/Indicator: TA100, Metabolic Activation: RAT, LIVER, S-9, AROCLOR 1254, Method: STANDARD PLATE) “inactive; negative”. Further, the mutagenic call (Test System: AMES SALMONELLA TYPHIMURIUM, Strain/Indicator: TA1535, Metabolic Activation: HAMSTER, LIVER, S-9, AROCLOR 1254, Method: STANDARD PLATE) was “inactive; negative”; the mutagenic call (Test System: AMES SALMONELLA TYPHIMURIUM, Strain/Indicator: TA1535, Metabolic Activation: NONE, Method: STANDARD PLATE) is “inactive; negative”; the mutagenic call (Test System: AMES SALMONELLA TYPHIMURIUM, Strain/Indicator: TA1535, Metabolic Activation: RAT, LIVER, S-9, AROCLOR 1254, Method: STANDARD PLATE) is “inactive; negative”; the mutagenic call (Test System: AMES SALMONELLA TYPHIMURIUM, Strain/Indicator: TA1537, Metabolic Activation: HAMSTER, LIVER, S-9, AROCLOR 1254, Method: STANDARD PLATE) is “inactive; negative”; the mutagenic call (Test System: AMES SALMONELLA TYPHIMURIUM, Strain/Indicator: TA1537, Metabolic Activation: NONE, Method: STANDARD PLATE) was “inactive; negative”; the mutagenic call (Test System: AMES SALMONELLA TYPHIMURIUM, Strain/Indicator: TA1537, Metabolic Activation: RAT, LIVER, S-9, AROCLOR 1254, Method: STANDARD PLATE) is “inactive; negative”. The mutagenic call (Test System: AMES SALMONELLA TYPHIMURIUM, Strain/Indicator: TA1538, Metabolic Activation: HAMSTER, LIVER, S-9, AROCLOR 1254, Method: STANDARD PLATE) was “inactive; negative”; the mutagenic call (Test System: AMES SALMONELLA TYPHIMURIUM, Strain/Indicator: TA1538, Metabolic Activation: NONE, Method: STANDARD PLATE) was “inactive; negative”; the mutagenic call (Test System: AMES SALMONELLA TYPHIMURIUM, Strain/Indicator: TA1538, Metabolic Activation: RAT, LIVER, S-9, AROCLOR 1254, Method: STANDARD PLATE) is “inactive; negative”; the mutagenic call (Test System: MOUSE LYMPHOMA, Strain/Indicator: L5178Y (TK+/TK-), Metabolic Activation: NONE, Method: SUSPENSION/PLATE) is “inactive; negative. reevaluation of results: negative”; the mutagenic call (Test System: MOUSE LYMPHOMA, Strain/Indicator: L5178Y (TK+/TK-), Metabolic Activation: RAT, LIVER, S-9, AROCLOR 1254, Method: SUSPENSION/PLATE) is “inactive; negative. reevaluation of results: negative”.

`CCOc1cccc([N+](=O)[O-])c1`: the mutagenic call by setting is: under setting [1], “inactive; negative”; (Test System: AMES SALMONELLA TYPHIMURIUM, Strain/Indicator: TA98, Method: PREINCUBATION) “inactive; negative”; under setting [2], “inactive; negative”; (Test System: AMES SALMONELLA TYPHIMURIUM, Strain/Indicator: TA100, Method: PREINCUBATION) “inactive; negative”; under setting [3], “inactive; negative”; (Test System: AMES SALMONELLA TYPHIMURIUM, Strain/Indicator: TA1535, Method: PREINCUBATION) “inactive; negative”. The mutagenic call is, setting by setting: (Test System: AMES SALMONELLA TYPHIMURIUM, Strain/Indicator: TA1537, Metabolic Activation: NONE, Method: PREINCUBATION) “inactive; negative”; (Test System: AMES SALMONELLA TYPHIMURIUM, Strain/Indicator: TA1537, Method: PREINCUBATION) “inactive; negative”; (Test System: AMES SALMONELLA TYPHIMURIUM, Strain/Indicator: TA1538, Metabolic Activation: NONE, Method: PREINCUBATION) “inactive; negative”; (Test System: AMES SALMONELLA TYPHIMURIUM, Strain/Indicator: TA1538, Method: PREINCUBATION) “inactive; negative”.

Values taken from PubChem BioAssay AID1259407 (Chemical Carcinogenesis Research Information System (CCRIS), 2018).
